The values that follow are results of earlier work, collected in patent US20250319149A1, “COMPOSITIONS FOR TREATING IMBALANCES OF THE GUT MICROBIOTA” (Provexis Natural Products Limited, priority 2022, published 2025).

The series has as its system TMAO-induced atherosclerosis. Particulars: mice; Chen et al.

With `Oc1ccc(C=Cc2cc(O)cc(O)c2)cc1` [resveratrol], the TMAO-induced atherosclerosis entry was “attenuated”.
